The values below come from US10561658B2, “Thieno- and pyrrolopyrimidine analogues as anticancer agents and methods of use thereof” (UNIVERSITY OF MARYLAND, BALTIMORE COUNTY, priority 2015, dated 2020).

Assay [1] has as its system Escherichia coli ATCC 25922. The assay can be described thus: Antimicrobial growth inhibition, E. coli. The note with it: ATCC25922; Escherichia coli ATCC 25922, 100 μM. The class given is cell-based. The method, then: (§1) Evaluation of antimicrobial activity in vitro. Compounds were tested against the following panel of bacteria and fungi purchased from the American Type Culture Collection (ATCC). Briefly, bacteria were grown to mid-log phase, diluted with fresh medium to an optical density at 600 nm (OD600) of 0.030-0.060 and then diluted again 1:10. This suspension (195 μL) was added to wells in a 96 well microtiter plate (Sarstedt) and 5 μL of compound dissolved in DMSO was added to give a final concentration of 100-0.1 μM at 2.5% DMSO by volume. A DMSO negative control and standard antibiotic positive controls were included in each plate. All compounds were tested in triplicate for each concentration. Plates were sealed with parafilm, placed in a Ziploc bag to prevent evaporation, and incubated at 30° C. (fungi) or 37° C. (bacteria) for 16-20 hours (48 hours for C. neoformans). The OD600 values for each well were determined with a plate reader (Biotek, EL800) and the data were standardized to the DMSO control wells after subtracting the background from blank medium. Initial single concentrations were tested at 100 μM and active compounds were further tested with at least nine concentrations for a full dose response. Dose response curves were generated using GraphPad Prism 5 software and used to determine the MIC95 concentrations (minimal concentration that inhibits 95% of growth). Compounds 1, 2, 5 and 19 were screened for growth inhibition activity against a panel of bacteria and fungi at a concentration of 100 as shown in Table 2. Compound 5 was included to test the importance of the C4-Cl substituent for activity across a broader range of biological systems.

In a further assay the test system is Cryptococcus neoformans. The assay can be described thus: Antifungal growth inhibition and MIC95, C. neoformans strains. The class given is cell-based. The method, then: as §1
(§2) Compounds 1 and 2 were further tested against the susceptible fungal strains to determine the MIC95 values.

In assay [2] the test system is Bacillus subtilis ATCC 6633. The assay can be described thus: Antimicrobial growth inhibition, B. subtilis. In kind it is cell-based. The settings on record: ATCC6633; Bacillus subtilis ATCC 6633, 100 μM. The procedure:
as §1

Assay [3] deals with Staphylococcus aureus subsp. aureus (MRSA) ATCC 43300. The assay can be described thus: Antimicrobial growth inhibition, S. aureus (MRSA). The class given is cell-based. The note with it: Staphylococcus aureus (MRSA) ATCC 43300, 100 μM. The method, then:
as §1

In assay [4] the test system is Candida albicans ATCC 10231. The assay can be described thus: Antifungal growth inhibition and MIC95, C. albicans. The note with it: ATCC10231; Candida albicans ATCC 10231, 100 μM. The class given is cell-based. The method, then:
as §1, §2

For assay [5], the system named is human lymphocytic CEM cells. The assay can be described thus: Cell proliferation assay, CEM. The class given is cell-based. The settings on record: CCRF-CEM, 72 h proliferation, Coulter counter. The method, then: (§3) Cell proliferation assays for several of the compounds were performed on L1210, a mouse lymphocytic leukemia cell line; CCRF-CEM [39] an acute lymphoblastic leukemia cell line; and HeLa, a human cancer cell line derived from a human cervical adenocarcinoma. Murine Leukemia L1210, human lymphocytic CEM and human cervix carcinoma HeLa cells were obtained from the American Type Culture Collection (ATCC) (Rockville, Md.). All assays were performed in 96-well microtiter plates. To each well were added (5-7.5)×10^4 tumor cells and a given amount of the test compound. The cells were allowed to proliferate for 48 h (murine leukemia L1210 cells) or 72 h (human lymphocytic CEM and human cervix carcinoma HeLa cells) at 37° C. in a humidified CO2-controlled atmosphere. At the end of the incubation period, the cells were counted in a Coulter counter. The IC50 (50% inhibitory concentration) was defined as the concentration of the compound that inhibited cell proliferation by 50%. […] Presence of C7 iodine on the 2,4-dichloro pyrrolo[3,2-d] (compound 20) increases the anticancer activity by a factor of 5 when compared to compound 19. […] This alludes to a) importance of C7-I towards activity against cancer cell lines for the 2,4-O-benzylated analogues (15 and 16).

Assay [6] relates to murine leukemia L1210 cells. The assay can be described thus: Cell proliferation assay, L1210. In kind it is cell-based. The settings on record: Mus musculus, 48 h proliferation, Coulter counter, read-out: IC50 L1210. The method, then:
as §3

For assay [7], the system named is human cervix carcinoma HeLa cells. The assay can be described thus: Cell proliferation assay, HeLa. In kind it is cell-based. The note with it: 72 h proliferation, Coulter counter. The procedure:
as §3

In assay [8] the test system is MDA-MB-231 cells. The assay can be described thus: Apoptosis (annexin V), MDA-MB-231. In kind it is cell-based, human. The note with it: MDA-MB-231, tested concentration. The procedure: (§4) Cell-cycle and apoptosis studies were conducted in MDA-MB-231 cells. Cell-cycle analysis of compound 19 at 15 μM concentration lead to arrest of 60% cells in G2/M stage. Similarly, at 1.75 μM concentration, compound 20 arrested 30% of cells in G2/M stage. […] To evaluate the possible mechanism for arrest of cell proliferation, cell-cycle distribution was measured using propidium iodide staining and flow cytometry. […] There are several possibilities that could account for this, including: (i) that cell lysis occurs rapidly following induction of apoptosis, preventing significant accumulation of annexin V-positive bodies, or (ii) that a distinct cell death pathway is triggered by compound 19.

For assay [9], the system named is L1210, CEM and HeLa cells. The assay can be described thus: Cell proliferation assays, comparison across cancer cell lines. The class given is cell-based. The settings on record: C7 iodine vs compound 19. The procedure:
as §3

For assay [10], the system named is MDA-MB-231 cells. The assay can be described thus: Cell cycle distribution (propidium iodide, flow cytometry), MDA-MB-231. In kind it is cell-based, human. The settings on record: 1.75 μM. The method, then:
Cell cycle distributions of MDA-MB-231 cells after 48 hours in the presence of equitoxic (IC80) doses of (a) compound 1 (15 μM) or (b) compound 2 (8 μM) analyzed by flow cytometry of fixed, propidium iodide-stained cells and compared to vehicle controls (DMSO). A minimum of 3000 cells were analyzed per cell population. Each bar represents the mean±SD across 4 independent cell samples.
as §4
Human metastatic breast cancer MDA-MB-231 cells were obtained from the American Type Culture Collection (ATCC) (Rockville, Md.) and maintained in Dulbecco's Modified Eagle's Medium (DMEM) containing 10% fetal bovine serum (FBS) without antibiotics at 37° C. in a humidified, CO2-controlled incubator. The cytotoxicity of compounds 1 and 2 was assessed by reduction of 3-(4, 5-dimethylthiazol-2-yl)-2,5-diphenyltetrazolium bromide (MTT). MDA-MB-231 cells were seeded in 96-well plates at 5×10^3 cells per well and treated with a range of drug concentrations. After 48 hours, cell viability was measured using the MTT Cell Proliferation Assay kit (ATCC) according to the manufacturer's instructions. Percent cell viability was plotted as a function of drug concentrations and analyzed using a sigmoidal dose response function with PRISM v3.03 software (GraphPad) to resolve drug concentrations yielding 50% cell death (IC50). The cell cycle distributions of MDA-MB-231 cells treated with compounds 1 or 2 were analyzed using propidium iodide staining and flow cytometry. 2×10^6 cells were seeded in 100 mm dishes and treated with compounds 1 or 2 at the IC80 values determined by cell viability assays or an equivalent volume of DMSO. 48 h following treatment the cells were collected, fixed, and stained with propidium iodide (Sigma Aldrich) immediately before analysis by flow cytometry.
As shown in Example 11, compounds 1 and 2 both induced apoptosis but involving a mechanism independent of cell cycle arrest. To test whether the toxicity of these agents for MDA-MB-231 cells proceeded via a similar pathway, their effects were monitored on cell cycle distributions using propidium iodide staining and flow cytometry. […]
(In general: In flow cytometry, cells or beads pass a laser one at a time.)

Bounds are passed on as bounds.

Consider `Clc1ncc2sccc2n1` [Compound 5], for which the inhibition (usually the percentage by which the read-out fell short of the control) at 100 µM in assay [1] is < 43%; with Cryptococcus neoformans (ATCC66031, Cryptococcus neoformans ATCC 66031, 100 μM) it was < 43%; in the assay on Cryptococcus neoformans (C. neoformans B4546, 100 μM), < 43%; with Cryptococcus neoformans (C. neoformans JEC20, 100 μM), < 43%; with Cryptococcus neoformans (C. neoformans VANC-R265, 100 μM) it was < 43%; in [2] it was < 43%. For the same molecule, the inhibition at 100 µM in assay [3] and in assay [4] was < 43% each time.
In the case of `c1ccc(COc2nc(OCc3ccccc3)c3[nH]ccc3n2)cc1` [Compound 15, 2,4-Bis-benzyloxy-5H-pyrrolo[3,2-d]pyrimidine], the figures for the IC50 in [5], in [6] and in [7] were 86 µM, 118 ± 8 µM and 98 µM, respectively.
`Ic1c[nH]c2c(OCc3ccccc3)nc(OCc3ccccc3)nc12` [Compound 16, 7-iodo-2,4-bis-benzyloxy-5H-pyrrolo[3,2-d]pyrimidine]: the IC50 (as a rule, the midpoint of a concentration-inhibition curve) was 17 µM in [5], 21 ± 2 µM in [6] and 17 µM in [7].
For the molecule `Clc1nc(Cl)c2[nH]cc(I)c2n1` [Compound 20, 7-iodo-2,4-dichloro pyrrolo[3,2-d]pyrimidine], the IC50 in assay [5] is 4.9 µM; in assay [6], 0.93 µM; in assay [7], 0.92 µM. In addition, the “annexin V-positive cells” value in the assay with MDA-MB-231 cells [8] was “robust accumulation”. The “increase of anticancer activity by a factor, compared to compound 19” value in [9] came to 5. Moreover, the “cells arrested in G2/M stage” value in the assay with MDA-MB-231 cells [10] was determined as 30%.
